From ChEMBL document CHEMBL1821559, “Grassypeptolides F and G, cyanobacterial peptides from Lyngbya majuscula” (J Nat Prod, 2011) come the findings set out here.

Activity calls are given as the source filed them. No cut-off for these calls is given here.

The test relates to HEK-293T. Kind of test: Cytotoxicity against AP1 expressing HEK293T cells coexpressing beta-lactamase pre-incubated 1 hr before TPA addition measured 18 hrs post TPA challenge by fluorimetric assay. In kind it is functional, cell-based. To be noted: Homo sapiens.

As for `CC(C)[C@H]1C(=O)N2CCC[C@H]2C(=O)N(C)[C@H](Cc2ccccc2)C2=N[C@@H](CS2)C(=O)N[C@H](C)C2=N[C@@H](CS2)C(=O)N(C)[C@H](Cc2ccccc2)C(=O)N[C@H](C(C)C)C(=O)N[C@H](C)[C@@H](C)C(=O)O[C@@H](Cc2ccccc2)C(=O)N1C`, the result was Active.

Take `CC[C@H]1NC(=O)[C@@H]2CSC(=N2)[C@@H](Cc2ccccc2)N(C)C(=O)[C@@H]2CCCN2C(=O)[C@H](C(C)C)N(C)C(=O)[C@H](Cc2ccccc2)OC(=O)[C@H](C)[C@@H](C)NC(=O)[C@@H](C(C)C)NC(=O)[C@@H](Cc2ccccc2)N(C)C(=O)[C@@H]2CSC1=N2`: the result was Active.
